This is an account of results in article PMC6687188, “Novel lactate dehydrogenase inhibitors with in vivo efficacy against Cryptosporidium parvum” (PLoS Pathogens, 2019).

Starred links: 1 amine or outer side, 2 acyl side, 3 side chain; linkers in the order of their positions; H or OH if unused. Positions of bridges follow the written chain, without caps; N, C: chain ends. Non-standard residues stand in square brackets, D forms with d. Residues, ends and D or L forms follow the SMILES beside them. Chains are numbered I, II in the order given. *: point of attachment. Actinocin(1to9) = Cc1c2oc3c(C)ccc(C(=O)[*:2])c3nc-2c(C(=O)[*:1])c(N)c1=O; NMeV = CN[C@H](C(=O)O)C(C)C; Sar = CNCC(=O)O; CH2Cl = ClC*

The assay addresses recombinant CpLDH protein (Cryptosporidium parvum, UniProt Q9GT92, F198L/K295E/R251K).
For the compound `CC(C)CCCCCCCCCCCCC(=O)NCC(=O)NC1C(O)C(O)C(Nc2ncnc3nc[nH]c23)OC1C(O)CO` (stereo not drawn) [NSC65104], the “MEAN CpLDH INHIBITION (%)” value is -113.50%. For the compound `O=C1/C(=C\c2ccc(Cl)c(Cl)c2)CN(C(=O)CCN2CCOCC2)C/C1=C\c1ccc(Cl)c(Cl)c1` [NSC638646], the “MEAN CpLDH INHIBITION (%)” value was -17.60%. With `CO[C@H]1[C@@H](O)[C@@H](C)O[C@H](O[C@H]2[C@H](Oc3cccc4c(O)c5c(=O)oc6ccc(C)c7c(=O)oc(c34)c5c67)O[C@H](C)[C@H](O)[C@@H]2O)[C@@H]1O` [NSC5159], the “MEAN CpLDH INHIBITION (%)” value was -38.07%.

With `Nc1nc(SCc2ccccc2Cl)c2ncn(C3OC(CO)C(O)C3O)c2n1` (stereo not drawn) [NSC40666], the “MEAN CpLDH INHIBITION (%)” value is -57.18%. For `COc1ccc(Cc2nc3ccccc3s2)cc1OC` [NSC632233], the “MEAN CpLDH INHIBITION (%)” value was -7.14%. Regarding `CC(=O)[O][Hg].c1ccc2c(c1)ccc1ccccc12` [NSC534], the “MEAN CpLDH INHIBITION (%)” value is listed as -63.87%. Regarding `CCOC(OCC)C(CC)[Se]c1ccccc1[N+](=O)[O-]` (stereo not drawn) [NSC646200], the “MEAN CpLDH INHIBITION (%)” value is recorded as -24.52%. Turning to `COc1cc(/C=C(\C)c2ccc3c(c2)OCO3)cc(OC)c1OC` [NSC648422], the “MEAN CpLDH INHIBITION (%)” value is on record as -69.44%. Under `Nc1nc(N)c(N=Nc2ccccc2)c(=O)[nH]1` [NSC5200] stands -51.63%. Take `O=C1Nc2ccc(Br)cc2/C1=C/C(=O)c1ccccc1` [NSC294961]: the “MEAN CpLDH INHIBITION (%)” value is on record as -25.63%. On to `CNC(=S)N/N=C/c1ccc([N+](=O)[O-])s1` [NSC169543], for which the “MEAN CpLDH INHIBITION (%)” value is recorded as -46.26%. In the case of `CC(C)(Br)C(=O)C(Br)Br` [NSC1027], the “MEAN CpLDH INHIBITION (%)” value was -2.97%. `C[C@]12CC[C@@H]3c4ccccc4CC[C@H]3[C@@H]1CC[C@@H]2O` [NSC22194]: the “MEAN CpLDH INHIBITION (%)” value was -50.61%. Under `O=C1Cc2c(-c3ccccc3)cc(-c3cccc(Cl)c3)nc2-c2ccccc2N1` [NSC684480] stands -22.58%; under `Cc1c(Cl)ccc2c1NC(=O)C2(O)C(C(=O)c1ccccc1)c1ccccc1` (stereo not drawn) [NSC635321], -39.51%. Consider `CN(C)[C@@H]1C(=O)C(C(N)=O)=C(O)[C@@]2(O)C(=O)C3=C(O)c4c(O)cccc4C[C@H]3C[C@@H]12` [NSC51812], for which the “MEAN CpLDH INHIBITION (%)” value is -26.06%.

Consider `Nc1nc2c(ncn2[C@@H]2O[C@H](CO)[C@@H](O)[C@H]2O)c(=O)[nH]1` [NSC19994], for which the “MEAN CpLDH INHIBITION (%)” value is given as -14.24%. For the compound `CC(=O)NC(CC(C)C)C(=O)NC(Cc1ccccc1)C(=O)CCl` (stereo not drawn) [NSC173905] (Ac-Leu-Phe-CH2Cl; configuration not given here), the “MEAN CpLDH INHIBITION (%)” value is listed as -39.37%.

As for `CN1C(Cl)=NS(=O)(=O)c2ccccc21` [NSC373853], the “MEAN CpLDH INHIBITION (%)” value is reported as -15.72%. To `CCCNC1=C(C)C(=O)C2=C(C1=O)[C@H](COC(N)=O)[C@]1(OC)[C@@H]3N[C@@H]3CN21` [NSC123115] belongs -0.99%; to `CC[C@H](C)[C@@H]1NC(=O)[C@@H](NC(=O)c2c3nc4c(C(=O)N[C@@H]5C(=O)N[C@@H](C(C)C)C(=O)N6CCC[C@H]6C(=O)N(C)CC(=O)N(C)[C@@H](C(C)C)C(=O)O[C@@H]5C)ccc(C)c4oc-3c(C)c(=O)c2N)[C@@H](C)OC(=O)[C@H](C(C)C)N(C)C(=O)CN(C)C(=O)[C@@H]2CCCN2C1=O` [NSC18268] (I: TIP[Sar][NMeV] / II: TVP[Sar][NMeV]; ester I:1-I:C, II:1-II:C; linker I:N-II:N via Actinocin(1to9)), -2.01%; to `NS(=O)(=O)c1nc2nc[nH]c(=O)c2[nH]1` [NSC635448], -5.65%. Turning to `NC(N)=NCCCS(=O)(=O)Nc1ccc(Nc2c3ccccc3nc3cc([N+](=O)[O-])ccc23)cc1` [NSC177365], the “MEAN CpLDH INHIBITION (%)” value is recorded as -212.36%. As to `CCN(CC)CCCC(C)NC(=O)c1ccc2c(c1)C(=O)c1ccccc1C2=O.Cl` (stereo not drawn) [NSC331757], the “MEAN CpLDH INHIBITION (%)” value is given as -61.61%. Under `CC(C)C[C@H]1C(=O)N2CCC[C@H]2[C@]2(O)O[C@](NC(=O)[C@@H]3C=C4c5cccc6[nH]c(Br)c(c56)C[C@H]4N(C)C3)(C(C)C)C(=O)N12.CS(=O)(=O)O` [NSC169774] stands -107.83%. To `Cl.Nc1ccc(OCCCc2c(-c3ccccc3)nc(N)[nH]c2=O)cc1` [NSC100856] belongs -59.57%; to `COC1=C(N)C(=O)c2nc(C)ccc2C1=O` [NSC132493], -117.70%. Under `COC1=C(C)C(=O)C2=C(C1=O)C(CO)N1C(C#N)C3CC4C(C1C2N1CCOC41)N3C` (stereo not drawn) [NSC349644] stands -64.47%; under `CN(C)CCCN1c2ccc3ccccc3c2Sc2cccc(Cl)c21` [NSC24113], -11.52%; under `Cc1cc([N+](=O)[O-])ccc1Nc1cccc(Cl)c1C` [NSC625641], -6.68%.

`CN(C)c1ccc(/C=C/C(=O)c2ccccc2)cc1Br` [NSC643164]: the “MEAN CpLDH INHIBITION (%)” value is on record as -21.20%. Under `CC(C)=CC1C(C(=O)O)C1(C)C` (stereo not drawn) [NSC11779] stands -22.15%; under `Cc1ccc2ccc3ccc(C)nc3c2n1` [NSC4280], -27.03%; under `O=[N+]([O-])[O-].O=[N+]([O-])[O-].O=[N+]([O-])[O-].[Ga+3]` [NSC15200], -34.76%.

Take `COc1cc([C@@H]2c3cc4c(cc3C[C@H]3COC(=O)[C@@H]32)OCO4)cc(OC)c1OC` [NSC403148]: the “MEAN CpLDH INHIBITION (%)” value is -8.59%. Take `[Cl][Hg][c]1ccc2ccccc2c1` [NSC174163]: the “MEAN CpLDH INHIBITION (%)” value is on record as -16.59%.

In the case of `CC(=O)c1c(O)c(C)c(O)c2c1OC1=CC(=O)C(C(C)=O)C(=O)C12C` (stereo not drawn) [NSC5890], the “MEAN CpLDH INHIBITION (%)” value was -32.64%. Under `CC(=O)OC1CC(n2cc(F)c(=O)[nH]c2=O)OC1CO` (stereo not drawn) [NSC407335] stands -11.80%; under `CN(CCc1ccccn1)c1ccc2c(c1)C(=O)c1ccccc1-2` [NSC24048], -65.48%; under `CC1=C2C(=CC(C)(C)[C@@H]2O)C(=O)[C@](C)(O)C12CC2` [NSC400978], -79.24%.

Turning to `Nc1ncnc2c([C@@H]3O[C@H](CO)[C@@H](O)[C@H]3O)c[nH]c12` [NSC352890], the “MEAN CpLDH INHIBITION (%)” value is -27.24%.

Take `NC(=O)C1=C[C@H]2[C@@H]3C=C[C@@]2(O)C(=O)O[C@@H]3O1` [NSC357683]: the “MEAN CpLDH INHIBITION (%)” value is recorded as -9.72%. With `CC(=O)OC[C@H]1O[C@@H](NC(=O)N(CCCl)N=O)[C@H](OC(C)=O)[C@@H](OC(C)=O)[C@@H]1OC(C)=O` [NSC245432], the “MEAN CpLDH INHIBITION (%)” value is listed as -45.30%. As for `C[C@]12CC[C@H](OC(=O)Cc3ccc(N(CCCl)CCCl)cc3)C[C@@H]1CC[C@@H]1[C@@H]2CC[C@]2(C)NC(=O)CC[C@@H]12` [NSC290205], the “MEAN CpLDH INHIBITION (%)” value is -205.36%. As for `C=C(C#N)C(=O)OCC(CC)CC.C=C(C#N)C(=O)OCC(CC)CC.CS(C)=O.CS(C)=O.Nc1c(N=Nc2ccc(-c3ccc(N=Nc4cc(S(=O)(=O)[O-])c5ccccc5c4N)cc3)cc2)cc(S(=O)(=O)[O-])c2ccccc12.[Pt+2]` [NSC615593], the “MEAN CpLDH INHIBITION (%)” value is on record as -2.09%.

In the case of `Cc1cc(N(CCOS(C)(=O)=O)CCOS(C)(=O)=O)ccc1C=Nc1ccc(-c2csc(-c3ccccc3)n2)c(Cl)c1` [NSC281613], the “MEAN CpLDH INHIBITION (%)” value is on record as -15.80%. Regarding `CCCCCC/C=C\CCCCCCCCCc1cccc(OC)c1O` [NSC617540], the “MEAN CpLDH INHIBITION (%)” value is on record as -6.79%. Under `N#CC(NCc1cccc(CNC(C#N)c2ccccc2)c1)c1ccccc1` (stereo not drawn) [NSC681730] stands -12.34%.

Turning to `COc1ccc(-c2cc(=O)c3c(O)cc(O)cc3o2)cc1OC` [NSC128305], the “MEAN CpLDH INHIBITION (%)” value was -10.13%.

With `CC(=O)C(N1CCCCC1)C(O)(C(F)(F)F)C(F)(F)F` (stereo not drawn) [NSC664327], the “MEAN CpLDH INHIBITION (%)” value is -14.71%. Under `Cc1c(N=Cc2ccc(N(CCC#N)CCC#N)cc2)c(=O)n(-c2ccccc2)n1C` [NSC620280] stands -51.47%; under `CCCCCn1cc2c3c(cccc31)C1C=C(C)CN(C)[C@@H]1C2.Cc1ccc(C(=O)OC(C(=O)O)C(OC(=O)c2ccc(C)cc2)C(=O)O)cc1` (stereo not drawn) [NSC600681], -36.35%. As to `C1COCCN1.S=C(S)N1CCOCC1` [NSC4114], the “MEAN CpLDH INHIBITION (%)” value was -42.22%. As to `O=c1c(Br)c(-c2ccccc2)[nH]c2ccccc12` [NSC12825], the “MEAN CpLDH INHIBITION (%)” value was -13.98%. In the case of `N.N.[Cl][Pt][Cl]` [NSC119875], the “MEAN CpLDH INHIBITION (%)” value was -45.38%. Turning to `CCOC(=O)Nc1cc2c(c(N)n1)N=C(c1ccccc1)CN2` [NSC330770], the “MEAN CpLDH INHIBITION (%)” value is recorded as -9.40%. Regarding `Cc1ccc(C)c(NC(=O)C(=O)C(C(=O)c2ccc3ccccc3c2)C2OC(=O)c3ccccc32)c1` (stereo not drawn) [NSC640985], the “MEAN CpLDH INHIBITION (%)” value is reported as -66.15%. On to `CCC[CH2][Sn]([CH2]CCC)([CH2]CCC)[O]c1cc(Cl)c(Cl)cc1Cl` [NSC164914], for which the “MEAN CpLDH INHIBITION (%)” value was -26.61%. To `O=C1Nc2c(Cl)cc(Cl)cc2/C1=N/N=C/c1ccco1` [NSC329279] belongs -39.07%; to `NC(=Nc1nc(-c2ccccn2)cc2ccccc12)c1ccccn1` [NSC637578], -28.84%. Regarding `Nc1ccc(N)c2c1C(=O)c1ccccc1C2=O` [NSC7833], the “MEAN CpLDH INHIBITION (%)” value is reported as -11.00%. For `C=C1C(=O)O[C@H]2/C=C(/CO)[C@H](OC(C)=O)C[C@H](O)/C(C)=C\[C@H](OC(=O)[C@@H](C)CC)[C@H]12` [NSC292663], the “MEAN CpLDH INHIBITION (%)” value is -63.04%. Consider `Nc1ncnc2c([C@@H]3O[C@H](CO)[C@@H](O)[C@H]3O)[nH]nc12` [NSC102811], for which the “MEAN CpLDH INHIBITION (%)” value is -35.09%.

On to `COC(=O)[C@@]12OC[C@]34[C@H]([C@@H](O)[C@@H]1O)[C@@]1(C)CC(=O)C(O)=C(C)[C@@H]1C[C@H]3OC(=O)[C@H](OC(=O)C=C(C)C)[C@@H]24` [NSC172924], for which the “MEAN CpLDH INHIBITION (%)” value was -39.50%. With `Br.CCCCCC(CN1CCOCC1)C(=O)/C=C/c1ccccc1` (stereo not drawn) [NSC322069], the “MEAN CpLDH INHIBITION (%)” value was -28.89%. Under `Cc1ccc(NC(=O)/C=C/c2ccccc2)c(C)c1` [NSC191389] stands -64.07%.
